According to patent publication US12398154B2, “Azaquinazoline pan-KRas inhibitors” (Mirati Therapeutics, Inc., priority 2020, dated 2025):

Assays:
[1] = biological target: KRas G12V (Homo sapiens, UniProt P01116, G12V); test: biochemical;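 further: KRas binding measured by TR-FRET displacement at room temperature, IC50 fitted from percent of control values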
Experimental: (§5) The ability of a compound to bind to KRas was measured using a TR-FRET displacement assay. […] After a 60-minute incubation at room temperature, the reaction was measured using a BMG LABTECH CLARIO star Plus via TR-FRET. […] The POC values were fit to a 4-parameter IC50 equation and the IC50 value reported.

[2] = biological target: KRas G12R (Homo sapiens, UniProt P01116, G12R); test: biochemical;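 further: TR-FRET displacement assay of compound binding to KRas, read after one hour at room temperature, potency from a four-parameter fit of percent-of-control values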
Experimental: as §5

[3] = tested on: pERK in MKN1 cells; test: Inhibition of KRas phosphorylation of ERK (Cisbio HTRF pERK assay); details: Homo sapiens, MKN-1, 3 h, read-out: Inhibition (HTRF IC50) of KRas-mediated Phosphorylation of ERK, MKN1
[4] = tested on: pERK in PSN1 cells; test: as above; details: Homo sapiens, PSN1, 3 h, read-out: Inhibition (HTRF IC50) of KRas-mediated Phosphorylation of ERK, PSN1
[5] = tested on: phospho-ERK in AsPC-1 (G12D) cells; test: Inhibition of KRas-mediated phosphorylation of ERK (in-cell western); format: cell-based; details: Homo sapiens, ASPC1, 3 h, 3 hours compound, phospho-ERK normalized to GAPDH
Experimental: (§1) Diluted compounds were then added in a final concentration of 0.5% DMSO. After 3 hours, 50 μL of 4.0% formaldehyde was added and the plates incubated at room temperature for 20 minutes. The plates were then dumped and permeabilized with 150 μL of ice cold 100% methanol for 10 minutes.
(§2) The amount of phospho-ERK was determined using an antibody specific for the phosphorylated form of ERK and compared to the amount of GAPDH. […] The plates were incubated overnight at 4° C. The plates were washed 3× with 150 uL PBS+0.1% Tween 20.
(§3) The plates were washed 3× with 150 uL PBS+0.1% Tween 20. Plates were imaged dry on a Li-COR Odyssey CLX plate reader.
(§4) The phospho-ERK (Thr202/Tyr204) signal was normalized to the GAPDH signal for each well and percent of DMSO control values were calculated. IC50 values were generated using a 4-parameter fit of the dose response curve.

[6] = tested on: phospho-ERK in NCI-H727 (G12V) cells; test: as above; format: cell-based; details: Homo sapiens, NCI-H727, 3 h, 3 hours compound, phospho-ERK normalized to GAPDH
Experimental: as §1, §2, §3, §4

[7] = tested on: phospho-ERK in NCI-H460 (Q61H) cells; test: as above; format: cell-based; details: Homo sapiens, NCI-H460, 3 h, 3 hours compound, phospho-ERK normalized to GAPDH
Experimental: as §1, §2, §3, §4

[8] = biological target: KRas G12D (Homo sapiens, UniProt P01116, G12D); test: biochemical;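 further: TR-FRET displacement binding assay on KRas, read after a one-hour incubation at room temperature, IC50 fitted from percent-of-control values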
Experimental: as §5

[9] = biological target: KRas G12S (Homo sapiens, UniProt P01116, G12S); test: biochemical;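 further: TR-FRET displacement binding to KRas, read after one hour incubation at room temperature, IC50 from four-parameter fit of percent of control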
Experimental: as §5

[10] = biological target: KRas G12A (Homo sapiens, UniProt P01116, G12A); test: biochemical;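 further: binding to KRas measured by TR-FRET displacement after one hour at room temperature, IC50 from a four-parameter fit of percent-of-control values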
Experimental: as §5

[11] = biological target: KRas WT (Homo sapiens, UniProt P01116); test: biochemical;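 further: binding to KRas read as TR-FRET displacement after a one-hour room-temperature incubation, IC50 derived from percent-of-control values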
Experimental: as §5

[12] = biological target: KRas G12C (Homo sapiens, UniProt P01116, G12C); test: biochemical;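 further: binding to KRas assessed by TR-FRET displacement after one hour incubation at room temperature, potency fitted from percent-of-control values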
Sequence of KRas G12C (P01116 1-169 isoform P01116-2 G12C): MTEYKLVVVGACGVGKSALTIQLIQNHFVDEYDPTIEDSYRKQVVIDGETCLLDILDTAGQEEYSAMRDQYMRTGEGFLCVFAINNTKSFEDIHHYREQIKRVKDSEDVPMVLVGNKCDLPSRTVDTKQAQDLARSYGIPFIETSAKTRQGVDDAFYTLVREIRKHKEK
Experimental: as §5

Sequence of KRas G12V (P01116 1-169 isoform P01116-2 G12V): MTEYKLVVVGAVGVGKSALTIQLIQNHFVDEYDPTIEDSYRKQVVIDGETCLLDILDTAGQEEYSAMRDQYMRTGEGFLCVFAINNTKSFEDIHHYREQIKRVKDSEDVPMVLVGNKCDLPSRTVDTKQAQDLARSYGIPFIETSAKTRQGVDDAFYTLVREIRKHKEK
Sequence of KRas G12D (P01116 1-169 isoform P01116-2 G12D): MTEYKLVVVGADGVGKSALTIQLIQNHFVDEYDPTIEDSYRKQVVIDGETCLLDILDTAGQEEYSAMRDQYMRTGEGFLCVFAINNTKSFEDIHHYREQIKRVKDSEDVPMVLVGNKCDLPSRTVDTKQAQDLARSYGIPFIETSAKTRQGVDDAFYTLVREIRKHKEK
Sequence of KRas G12R (P01116 1-169 isoform P01116-2 G12R): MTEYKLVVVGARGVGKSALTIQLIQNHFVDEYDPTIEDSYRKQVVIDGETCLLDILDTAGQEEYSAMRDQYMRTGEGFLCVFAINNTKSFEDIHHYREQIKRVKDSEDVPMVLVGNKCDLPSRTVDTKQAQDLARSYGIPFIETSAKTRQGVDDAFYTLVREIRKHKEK
Sequence of KRas WT (P01116 1-169 isoform P01116-2): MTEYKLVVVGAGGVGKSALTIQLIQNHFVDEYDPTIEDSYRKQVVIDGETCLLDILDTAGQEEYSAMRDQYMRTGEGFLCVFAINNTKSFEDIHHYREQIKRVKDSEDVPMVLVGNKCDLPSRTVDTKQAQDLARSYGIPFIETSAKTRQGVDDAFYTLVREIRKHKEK
Sequence of KRas G12S (P01116 1-169 isoform P01116-2 G12S): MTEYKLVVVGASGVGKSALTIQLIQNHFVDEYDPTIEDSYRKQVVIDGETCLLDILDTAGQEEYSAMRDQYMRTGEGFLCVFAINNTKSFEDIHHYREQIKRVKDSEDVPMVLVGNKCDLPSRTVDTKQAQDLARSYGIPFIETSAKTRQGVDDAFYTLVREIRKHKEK
Sequence of KRas G12A (P01116 1-169 isoform P01116-2 G12A): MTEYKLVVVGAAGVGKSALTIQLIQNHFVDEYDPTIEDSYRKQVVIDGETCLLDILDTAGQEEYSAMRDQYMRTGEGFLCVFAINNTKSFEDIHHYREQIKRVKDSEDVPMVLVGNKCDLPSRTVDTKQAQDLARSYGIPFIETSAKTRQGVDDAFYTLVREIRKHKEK

Work on `CCc1c(F)ccc2cc(O)cc(-c3ncc4c(N5CC[C@H](C)[C@@H](O)C5)nc(OC[C@@]56CCCN5C[C@H](F)C6)nc4c3F)c12` [Example 188] yielded an IC50 [1] of 19 nM, an IC50 [2] of 23 nM and an IC50 [3] of 77 nM. For the same molecule, the IC50 [4] was ≥ 10000 nM, the IC50 [5] was 2070 nM and the IC50 [6] was 2140 nM. For the same molecule, the IC50 [7] was 478 nM and the IC50 [8] was 48 nM.
In the case of `CCc1c(F)ccc2cc(O)cc(-c3ncc4c(N5CCC[C@]6(CNC(=O)C6)C5)nc(OC[C@]56CCCN5C[C@@H](O)C6)nc4c3F)c12` [Example 206], the IC50 [1] is reported as ≤ 2 nM, the IC50 [2] is reported as ≤ 2 nM and the IC50 [3] is reported as 34 nM. For the same molecule, the IC50 [4] was ≥ 10000 nM, the IC50 [5] was 6960 nM and the IC50 [6] was 3330 nM. For the same molecule, the IC50 [7] was 3380 nM and the IC50 [8] was ≤ 2 nM.
For `CCc1c(F)ccc2cc(O)cc(-c3ncc4c(N5CCC[C@@](C)(O)C5)nc(OC[C@]56CCCN5[C@@H](CO)CC6)nc4c3F)c12` [Example 303, (R)-1-(7-(8-ethyl-7-fluoro-3-hydroxynaphthalen-1-yl)-8-fluoro-2-(((3R,7aR)-3-(hydroxymethyl)hexahydro-1H-pyrrolizin-7a-yl)methoxy)pyrido[4,3-d]pyrimidin-4-yl)-3-methylpiperidin-3-ol], the IC50 [1] was ≤ 2 nM, the IC50 [2] was ≤ 2 nM and the IC50 [3] was 358 nM. For the same molecule, the IC50 [4] was ≥ 10000 nM, the IC50 [5] was 3290 nM and the IC50 [6] was 3690 nM. The IC50 [7] was 4120 nM and the IC50 [8] was ≤ 2 nM.
With `O=C1NCC2(CCCN(c3nc(OC[C@@]45CCCN4C[C@H](F)C5)nc4c(F)c(-c5cc(O)cc6ccc(F)c(F)c56)ncc34)C2)N1` (stereo partly drawn) [Example 445, 7-(7-(7,8-difluoro-3-hydroxynaphthalen-1-yl)-8-fluoro-2-(((2R,7aS)-2-fluorohexahydro-1H-pyrrolizin-7a-yl)methoxy)pyrido[4,3-d]pyrimidin-4-yl)-1,3,7-triazaspiro[4.5]decan-2-one] the IC50 [1] was ≤ 2 nM, the IC50 [2] was ≤ 2 nM and the IC50 [3] was 8200 nM. For the same molecule, the IC50 [4] was ≥ 10000 nM, the IC50 [5] was 1620 nM and the IC50 [6] was 2930 nM. The IC50 [7] was 1190 nM and the IC50 [8] was 4 nM.
Work on `CCc1c(F)ccc2cc(O)cc(-c3ncc4c(N5CCC[C@@H](O)[C@H]5C)nc(OC[C@@]56CCCN5C[C@H](F)C6)nc4c3F)c12` [Example 181] yielded an IC50 [1] of 17 nM, an IC50 [2] of 10 nM and an IC50 [3] of 139 nM. It also gave an IC50 [4] of 6700 nM, an IC50 [5] of 1540 nM and an IC50 [6] of 1610 nM. The IC50 [7] was 584 nM and the IC50 [8] was 29 nM.
With `CCc1c(F)ccc2cc(O)cc(-c3ncc4c(NCc5n[nH]cc5C(N)=O)nc(OC[C@@]56CCCN5C[C@H](F)C6)nc4c3F)c12` [Example 162] the IC50 [1] was ≤ 2 nM, the IC50 [2] was 3 nM and the IC50 [3] was 187 nM. For the same molecule, the IC50 [4] was ≥ 10000 nM, the IC50 [5] was 4530 nM and the IC50 [6] was 4170 nM. It also gave an IC50 [7] of 6770 nM and an IC50 [8] of 31 nM.
For `CCc1c(F)ccc2cc(O)cc(-c3ncc4c(N5C[C@H](C)C[C@@H](O)C5)nc(OC[C@@]56CCCN5C[C@H](F)C6)nc4c3F)c12` [Example 187], the IC50 [1] was 5 nM, the IC50 [2] was 6 nM and the IC50 [3] was 38 nM. For the same molecule, the IC50 [4] was ≥ 10000 nM, the IC50 [5] was 470 nM and the IC50 [6] was 550 nM. The IC50 [7] was 133 nM and the IC50 [8] was 12 nM.
With `CCc1c(F)ccc2cc(O)cc(-c3ncc4c(Nc5cnn(-c6ccncc6)c5)nc(OC[C@@]56CCCN5C[C@H](F)C6)nc4c3F)c12` [Example 297, 5-ethyl-6-fluoro-4-(8-fluoro-2-(((2R,7aS)-2-fluorohexahydro-1H-pyrrolizin-7a-yl)methoxy)-4-((1-(pyridin-4-yl)-1H-pyrazol-4-yl)amino)pyrido[4,3-d]pyrimidin-7-yl)naphthalen-2-ol] the IC50 [1] was ≤ 2 nM, the IC50 [2] was 9 nM and the IC50 [3] was 154 nM. The IC50 [4] was ≥ 10000 nM, the IC50 [5] was 3430 nM and the IC50 [6] was 450 nM. The IC50 [7] was 660 nM and the IC50 [8] was 54 nM.
For `CCc1c(F)ccc2cc(O)cc(-c3ncc4c(N5CCC[C@@](C)(O)C5)nc(OC[C@@]56CCCN5C[C@H](O)C6)nc4c3F)c12` [Example 311, (2R,7aS)-7a-(((7-(8-ethyl-7-fluoro-3-hydroxynaphthalen-1-yl)-8-fluoro-4-((R)-3-hydroxy-3-methylpiperidin-1-yl)pyrido[4,3-d]pyrimidin-2-yl)oxy)methyl)hexahydro-1H-pyrrolizin-2-ol], the IC50 [1] was ≤ 2 nM, the IC50 [2] was ≤ 2 nM and the IC50 [3] was 15 nM. The IC50 [4] was ≥ 10000 nM, the IC50 [5] was 738 nM and the IC50 [6] was 2600 nM. For the same molecule, the IC50 [7] was 501 nM and the IC50 [8] was ≤ 2 nM.
With `CCc1c(F)ccc2cc(O)cc(-c3ncc4c(NCc5ccc6nonc6c5)nc(OC[C@@]56CCCN5C[C@H](F)C6)nc4c3F)c12` [Example 175, 4-(4-((benzo[c][1,2,5]oxadiazol-5-ylmethyl)amino)-8-fluoro-2-(((2R,7aS)-2-fluorohexahydro-1H-pyrrolizin-7a-yl)methoxy)pyrido[4,3-d]pyrimidin-7-yl)-5-ethyl-6-fluoronaphthalen-2-ol] the IC50 [1] was ≤ 2 nM, the IC50 [2] was ≤ 2 nM and the IC50 [3] was 39 nM. For the same molecule, the IC50 [4] was ≥ 10000 nM, the IC50 [5] was 1720 nM and the IC50 [6] was 756 nM. The IC50 [7] was 675 nM and the IC50 [8] was 38 nM.
Work on `CCc1c(F)ccc2cc(O)cc(-c3ncc4c(N5C[C@H](O)C[C@@H](F)C5)nc(OC[C@@]56CCCN5C[C@H](F)C6)nc4c3F)c12` [Example 178] yielded an IC50 [1] of 7 nM, an IC50 [2] of 14 nM and an IC50 [3] of 49 nM. The IC50 [4] was ≥ 10000 nM, the IC50 [5] was 606 nM and the IC50 [6] was 2110 nM. It also gave an IC50 [7] of 728 nM and an IC50 [8] of 18 nM.
`CCc1c(F)ccc2cc(O)cc(-c3ncc4c(N5C[C@H](O)C[C@H](F)C5)nc(OC[C@@]56CCCN5C[C@H](F)C6)nc4c3F)c12` [Example 192] was tested, and the IC50 [1] was ≤ 2 nM, the IC50 [2] was ≤ 2 nM and the IC50 [3] was 4 nM. The IC50 [4] was 7340 nM, the IC50 [5] was 90 nM and the IC50 [6] was 191 nM. For the same molecule, the IC50 [7] was 51 nM and the IC50 [8] was ≤ 2 nM.
For `Cc1cc(N)nc(-c2ncc3c(N4CCCC(C)(O)C4)nc(OC[C@@]45CCCN4C[C@H](F)C5)nc3c2F)c1C(F)(F)F` (stereo partly drawn) [Example 459, 1-(7-(6-amino-4-methyl-3-(trifluoromethyl)pyridin-2-yl)-8-fluoro-2-(((2R,7aS)-2-fluorohexahydro-1H-pyrrolizin-7a-yl)methoxy)pyrido[4,3-d]pyrimidin-4-yl)-3-methylpiperidin-3-ol], the IC50 [9] was 821 nM, the IC50 [10] was 815 nM and the IC50 [11] was 688 nM. It also gave an IC50 [1] of 766 nM, an IC50 [2] of 1010 nM and an IC50 [12] of 822 nM. For the same molecule, the IC50 [5] was 9940 nM, the IC50 [6] was ≥ 10000 nM and the IC50 [7] was ≥ 10000 nM. For the same molecule, the IC50 [8] was 537 nM.
For `CCc1c(F)ccc2cc(O)cc(-c3ncc4c(N5CCC[C@@H](O)[C@@H]5C)nc(OC[C@@]56CCCN5C[C@H](F)C6)nc4c3F)c12` [Example 185], the IC50 [1] was 9 nM, the IC50 [2] was 9 nM and the IC50 [3] was 17 nM. For the same molecule, the IC50 [4] was 4840 nM, the IC50 [5] was 306 nM and the IC50 [6] was 481 nM. It also gave an IC50 [7] of 424 nM and an IC50 [8] of 11 nM.
For `O=C1CC2(CCCN(c3nc(OC[C@@]45CCCN4C[C@H](F)C5)nc4c(F)c(-c5cc(O)cc6ccc(F)c(F)c56)ncc34)C2)CN1` (stereo partly drawn) [Example 446, 7-(7-(7,8-difluoro-3-hydroxynaphthalen-1-yl)-8-fluoro-2-(((2R,7aS)-2-fluorohexahydro-1H-pyrrolizin-7a-yl)methoxy)pyrido[4,3-d]pyrimidin-4-yl)-2,7-diazaspiro[4.5]decan-3-one], the IC50 [1] was ≤ 2 nM, the IC50 [2] was 4 nM and the IC50 [3] was 786 nM. For the same molecule, the IC50 [4] was ≥ 10000 nM, the IC50 [5] was 3670 nM and the IC50 [6] was 2500 nM. It also gave an IC50 [7] of 2190 nM and an IC50 [8] of 4 nM.
With `CCc1c(F)ccc2cc(O)cc(-c3ncc4c(N5CC[C@@H](C)[C@@H](O)C5)nc(OC[C@@]56CCCN5C[C@H](F)C6)nc4c3F)c12` [Example 189] the IC50 [1] was 18 nM, the IC50 [2] was 18 nM and the IC50 [3] was 29 nM. For the same molecule, the IC50 [4] was 5540 nM, the IC50 [5] was 1240 nM and the IC50 [6] was 1430 nM. For the same molecule, the IC50 [7] was 377 nM and the IC50 [8] was 32 nM.
For `Oc1cc(-c2ncc3c(N4CCC[C@]5(C4)C[C@H](O)C5)nc(OC[C@@]45CCCN4C[C@H](F)C5)nc3c2F)c2c(F)c(F)ccc2c1` (single isomer, unassigned) [Example 441], the IC50 [1] was ≤ 2 nM, the IC50 [2] was ≤ 2 nM and the IC50 [3] was 6 nM. The IC50 [4] was 2880 nM, the IC50 [5] was 119 nM and the IC50 [6] was 139 nM. The IC50 [7] was 70 nM and the IC50 [8] was 3 nM.
